From paper PMC11586334, “Molecular hybridization modification improves the stability and immunomodulatory activity of TP5 peptide” (Frontiers in Immunology, 2024)
Ends that are not written are not given here.

Key:
recombinant TLR2 = target: T1, recombinant TLR2 (Homo sapiens, UniProt O60603); assay: SPR binding of YTP to immobilized TLR2; details: ProteOn XPR36, TLR2 immobilized by amino coupling, 25°C, PBS with 1% Tween 20, 1:1 model
T1 construct: purchased R&D Systems
Method: […] (SPR) experiments were conducted using a ProteOn XPR36 instrument (Bio-Rad, Hercules, CA, USA) with a ProteOn GLH sensor chip (Bio-Rad) at 25°C. The running buffer (PBS with 1% Tween 20) was continuously passed into the reaction chamber at 30 μL/min. The SPR sensing chip with recombinant TLR2 (R&D Systems) was immobilized by amino coupling to capture YTP. The binding affinity of YTP to TLR2 was examined using peptide concentrations of […]. The running buffer was injected into the empty channels as a reference. Sensor chip regeneration and desorption were achieved by injecting 10 mM Gly-HCl buffer (pH 2.5) before the next round of analyses. The experimental data were processed using ProteOn manager software (version 2.0). The binding curves were processed for the start injection alignment and baseline. The reference-subtracted sensorgram was then fitted to the curves labeling a homogeneous 1:1 model. Protein surface data were grouped to fit the association (Ka) and dissociation (Kd) rate constants. The symmetry dissociation constant (KD) for the peptide-[…] interaction was evaluated by using the following equation: […]

in vitro = in vitro ADME; details: rat
Method: Rat plasma was collected by centrifuging whole blood from healthy adult rats. YW12D, TP5, and YTP (10 µg/mL) were incubated for different time at 37°C in rat plasma. The samples were collected into prechilled tubes containing 1 mL of acidic acetone (hydrochloric acid/acetone/H2O, 1:40:5) and centrifuged at 2, 000 × g for 20 min at 4°C. The obtained precipitates were dried in vacuum. Then, the dried precipitates were dissolved in 0.5 mL of 1 M acetic acid. The peptide analysis was conducted using HPLC. The half-lives of the peptides were calculated by a logarithm-linear regression analysis of the peptide concentrations.

RAW264.7 macrophages = type: cell-based, murine
Method: Murine macrophage cells (RAW264.7) were purchased from the Shanghai Cell Bank, the Institute of Cell Biology, China Academy of Sciences and cultured in Dulbecco’s modified Eagle’s medium (DMEM; HyClone, UT, USA). The DMEM medium was supplemented with 10% (v/v) fetal bovine serum (Bioscience) and 1% (v/v) penicillin/streptomycin (HyClone) and maintained at 37°C in a humidified atmosphere (5% CO2, 95% air).
RAW264.7 viability was measured using a Cell Counting Kit-8 (CCK-8) Assay Kit (Dojinbo, Japan). Cells were seeded in 96-well plates at a density of 2 × 10^4 cells/well and treated with or without YW12D, TP5 and YTP peptides (10–80 μg/mL). After incubation for 24 h, the cells were then incubated in CCK-8 reagent for 4 h at 37°C. The absorbance of each well was measured at 450 nm using a 96-well microplate reader. Cell viability was evaluated as follows:
(1) Cell viability (%)=(OD450 (sample)/OD450 (control))×100%

[1] = target: recombinant TLR2 (Toll-like receptor 2) (UniProt O60603); assay: SPR; ProteOn XPR36, GLH sensor chip; recombinant TLR2 immobilised by amino coupling; YTP passed over at 0, 1.25, 2.5, 5 and 10 (μM in the results, mM in the methods); 25°C; running buffer PBS with 1% Tween 20, 30 μL/min; homogeneous 1:1 model
recombinant TLR2 (Toll-like receptor 2), sequence (O60603 21-588): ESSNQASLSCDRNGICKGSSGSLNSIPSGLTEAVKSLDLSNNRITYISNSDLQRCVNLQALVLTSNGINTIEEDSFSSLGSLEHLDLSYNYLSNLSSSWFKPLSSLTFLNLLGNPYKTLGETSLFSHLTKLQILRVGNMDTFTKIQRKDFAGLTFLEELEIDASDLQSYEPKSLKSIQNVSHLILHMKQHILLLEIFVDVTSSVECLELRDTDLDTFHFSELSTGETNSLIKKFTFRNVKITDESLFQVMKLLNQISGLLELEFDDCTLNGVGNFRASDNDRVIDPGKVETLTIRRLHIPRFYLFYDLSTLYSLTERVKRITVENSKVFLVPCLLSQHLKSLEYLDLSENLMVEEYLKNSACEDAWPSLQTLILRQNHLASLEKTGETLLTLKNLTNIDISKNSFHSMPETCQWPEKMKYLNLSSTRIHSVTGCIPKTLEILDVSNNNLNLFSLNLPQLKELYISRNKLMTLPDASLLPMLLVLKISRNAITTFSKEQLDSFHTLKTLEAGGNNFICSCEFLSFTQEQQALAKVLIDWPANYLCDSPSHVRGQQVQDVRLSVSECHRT

T1 sequence (O60603 21-784, species assumed): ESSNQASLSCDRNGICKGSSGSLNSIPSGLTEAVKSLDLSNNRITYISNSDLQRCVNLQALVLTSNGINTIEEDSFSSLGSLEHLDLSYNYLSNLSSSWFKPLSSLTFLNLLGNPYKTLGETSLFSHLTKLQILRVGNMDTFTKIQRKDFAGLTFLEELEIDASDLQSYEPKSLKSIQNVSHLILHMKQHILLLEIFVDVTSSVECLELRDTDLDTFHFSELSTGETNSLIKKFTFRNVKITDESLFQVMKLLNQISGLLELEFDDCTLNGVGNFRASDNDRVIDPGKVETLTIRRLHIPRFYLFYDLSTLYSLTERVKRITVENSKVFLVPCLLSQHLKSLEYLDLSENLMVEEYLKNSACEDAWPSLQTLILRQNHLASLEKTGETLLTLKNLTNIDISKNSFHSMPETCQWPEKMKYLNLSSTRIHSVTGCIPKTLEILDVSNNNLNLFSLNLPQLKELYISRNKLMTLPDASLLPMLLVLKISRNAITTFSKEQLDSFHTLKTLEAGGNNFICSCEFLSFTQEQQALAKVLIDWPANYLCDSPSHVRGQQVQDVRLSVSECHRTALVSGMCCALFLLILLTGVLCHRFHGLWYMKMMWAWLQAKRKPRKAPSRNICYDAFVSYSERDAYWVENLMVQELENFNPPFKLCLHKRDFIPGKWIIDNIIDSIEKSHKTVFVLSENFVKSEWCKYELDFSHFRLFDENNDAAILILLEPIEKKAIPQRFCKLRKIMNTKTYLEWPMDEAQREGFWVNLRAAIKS

Molecule | Ka (association rate constant) (recombinant TLR2) | Kd (dissociation rate constant) (recombinant TLR2) | half-life in plasma (in vitro) | half-life at 10 µg/mL (in vitro; plasma) | cytotoxicity at high dose (RAW264.7 macrophages) | Kd [1]
YVKLWRMIKFIRRKDVY [YTP] | 4.31e+06 M⁻¹ s⁻¹ | 0.0162 s⁻¹ | more than 2 h | 2 h | no significant cytotoxicity | –
YVKLWRMIKFIRRKDVY [hybrid peptide YW12D-TP5 (YTP)] | – | – | – | – | – | 3.76 nM
